# Experimental data from US11685732B2, “MYST family histone acetyltransferase inhibitors” (Epizyme, Inc., priority 2017, dated 2023).
# Target: KAT-6A (Homo sapiens (Human), UniProt Q92794)
# Experiment: KAT-6A biochemical inhibition assay (SAMDI mass spectrometry)
# Settings: not given
# Method: KAT-6A. Enzyme assay buffer was 50 mM Tris pH 8.0, 0.002% Tween20, 0.005% bovine skin gelatin, and 1 mM dithiothreitol (DTT). For determination of IC50 values, compounds were serially diluted with 2% (v/v) DMSO in the final reaction, pre-incubating each dilution of each compound with 40 μL of assay buffer containing KAT-6A enzyme (12.5 nM final concentration). 10 μL of assay buffer containing 1 μM peptide substrate and 1 μM acetyl coenzyme A (final concentrations) was added. Reactions (50 μL total) were then carried out at 25° C. for 90 minutes. Reactions were terminated by the addition of 0.5% formic acid (final concentration), and a sample of each reaction was analyzed by SAMDI Tech, Inc. (Chicago, Ill.) using self-assembled monolayer desorption/ionization time-of-flight mass spectrometry (Mrksich, M. (2008) Mass spectrometry of self-assembled monolayers: a new tool for molecular surface science. ACS Nano 2, 7-18).
# Sequence of KAT-6A (Q92794 other isoform, or with tags, fused parts or gaps): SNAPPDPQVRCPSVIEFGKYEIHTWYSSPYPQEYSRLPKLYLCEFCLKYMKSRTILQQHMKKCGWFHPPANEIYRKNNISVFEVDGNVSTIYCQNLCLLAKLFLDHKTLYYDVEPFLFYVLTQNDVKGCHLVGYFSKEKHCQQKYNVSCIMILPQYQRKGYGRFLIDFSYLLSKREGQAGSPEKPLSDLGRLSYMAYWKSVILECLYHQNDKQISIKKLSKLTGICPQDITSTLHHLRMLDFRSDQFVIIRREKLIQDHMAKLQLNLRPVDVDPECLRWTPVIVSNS
row,SMILES,IC50
1,Cn1cnc(-c2cc(C(=O)NNS(=O)(=O)CC3CCCCC3)c(F)c(Cl)c2C#N)c1 [Compound I-443],> 100 µM
2,Cn1cnc(-c2cc(Cl)c(F)c(C(=O)NNS(=O)(=O)C3CCN(CC(F)(F)F)C3)c2)c1 (stereo not shown) [Compound I-452],10 to 50 µM
3,CC(C)Oc1ccc(S(=O)(=O)NNC(=O)c2cc(-c3cn(C)cn3)cc(Cl)c2F)c(F)c1 [Compound I-439],< 10 µM
4,COCCOC1CCCC(CS(=O)(=O)NNC(=O)c2cc(-c3cn(C)cn3)cc(Cl)c2F)C1 (stereo not shown) [Compound I-461],< 10 µM
5,CCNC(=O)N[C@H]1CC[C@@H](C(C)S(=O)(=O)NNC(=O)c2cc(-c3cn(C)cn3)cc(Cl)c2F)CC1 (stereo partly shown) [Compound I-454],< 10 µM
6,CCN(C)C(=O)N(C)C1CC(CS(=O)(=O)NNC(=O)c2cc(-c3cn(C)cn3)cc(Cl)c2F)C1 (stereo not shown) [Compound I-425],50 to 100 µM
7,Cn1cnc(-c2cc(Cl)c(F)c(C(=O)NNS(=O)(=O)c3cccc(O)c3)c2)c1 [Compound I-429],< 10 µM
8,COCCOC1CCC(CS(=O)(=O)NNC(=O)c2cc(-c3cn(C)cn3)cc(Cl)c2F)CC1 (stereo not shown) [Compound I-463],< 10 µM
9,CCNC(=O)N[C@H]1CC[C@H](C(C)S(=O)(=O)NNC(=O)c2cc(-c3cn(C)cn3)cc(Cl)c2F)CC1 (stereo partly shown) [Compound I-455],10 to 50 µM
10,CN(C)CCOc1cccc(S(=O)(=O)NNC(=O)c2cc(-c3cn(C)cn3)cc(Cl)c2F)c1 [Compound I-432],< 10 µM
11,Cn1cnc(-c2cc(Cl)c(F)c(C(=O)NNS(=O)(=O)c3cccc(O)c3F)c2)c1 [Compound I-444],< 10 µM
12,COc1ccc(S(=O)(=O)NNC(=O)c2cc(-c3cn(C)cn3)cc(Cl)c2F)c(F)c1O [Compound I-465],< 10 µM
13,CCNC(=O)N(C)C1CC(CS(=O)(=O)NNC(=O)c2cc(-c3cn(C)cn3)cc(Cl)c2F)C1 (stereo not shown) [Compound I-428],< 10 µM
14,Cn1cnc(-c2cc(Cl)c(F)c(C(=O)NNS(=O)(=O)c3cc(O)ccc3F)c2)c1 [Compound I-453],< 10 µM
15,COCCOc1ccc(S(=O)(=O)NNC(=O)c2cc(-c3cn(C)cn3)cc(Cl)c2F)c(F)c1 [Compound I-440],< 10 µM
16,Cn1cnc(-c2cc(Cl)c(F)c(C(=O)NNS(=O)(=O)C[C@H]3CC[C@H](NCC(F)(F)F)CC3)c2)c1 [Compound I-466],< 10 µM
17,CC([C@H]1CC[C@@H](N)CC1)S(=O)(=O)NNC(=O)c1cc(-c2cn(C)cn2)cc(Cl)c1F (stereo partly shown) [Compound I-448],> 100 µM
18,CO[C@H]1CCCC[C@@H]1CS(=O)(=O)NNC(=O)c1cc(-c2cn(C)cn2)cc(Cl)c1F [Compound I-434],< 10 µM
19,Cn1cnc(-c2cc(Cl)c(F)c(C(=O)NNS(=O)(=O)CC3CCN(CC(F)(F)F)CC3)c2)c1 [Compound I-431],10 to 50 µM
20,COc1cc(F)c(S(=O)(=O)NNC(=O)c2cc(-c3cn(C)cn3)cc(Cl)c2F)cc1OCc1ccccc1 [Compound I-451],10 to 50 µM
21,COCCc1cn(Cc2ccc(OC)cc2)cc1-c1cc(Cl)c(F)c(C(=O)NNS(=O)(=O)CC2CCOCC2)c1 [Compound I-436],> 100 µM
22,Cn1cnc(-c2cc(Cl)c(F)c(C(=O)NNS(=O)(=O)CC3CCCN(CC(F)(F)F)C3)c2)c1 (stereo not shown) [Compound I-437],10 to 50 µM
23,Cn1cnc(-c2cc(Cl)c(F)c(C(=O)NNS(=O)(=O)c3ccc(Cl)cc3F)c2)c1 [Compound I-438],< 10 µM
24,CCOc1ccc(S(=O)(=O)NNC(=O)c2cc(-c3cn(C)cn3)cc(Cl)c2F)c(F)c1 [Compound I-441],< 10 µM
25,COc1ccc(S(=O)(=O)NNC(=O)c2cc(-c3cn(C)cn3)cc(Cl)c2F)cc1OCc1ccccc1 [Compound I-457],10 to 50 µM
26,CO[C@@H]1CCCC[C@@H]1CS(=O)(=O)NNC(=O)c1cc(-c2cn(C)cn2)cc(Cl)c1F [Compound I-435],< 10 µM
27,CCN1CC(CS(=O)(=O)NNC(=O)c2cc(-c3cn(C)cn3)cc(Cl)c2F)CCC1=O (stereo not shown) [Compound I-424],10 to 50 µM
28,COc1cnc(Cl)c(S(=O)(=O)NNC(=O)c2cc(-c3cn(C)cn3)cc(Cl)c2F)c1 [Compound I-464],< 10 µM

# The next lines start with the values.
row,IC50,SMILES
1,10 to 50 µM,Cn1cnc(-c2cc(Cl)c(F)c(C(=O)NNS(=O)(=O)c3cccnc3O)c2)c1 [Compound I-430]
2,10 to 50 µM,Cn1cnc(-c2cc(Cl)c(F)c(C(=O)NNS(=O)(=O)C3CCC4CCC3C4)c2)c1 (stereo not shown) [Compound I-427]
3,< 10 µM,COc1cc(F)c(S(=O)(=O)NNC(=O)c2cc(-c3cn(C)cn3)cc(Cl)c2F)c(F)c1 [Compound I-421]
4,10 to 50 µM,Cn1cnc(-c2cc(Cl)c(F)c(C(=O)NNS(=O)(=O)CC3CC3)c2)c1 [Compound I-460]
5,< 10 µM,Cn1cnc(-c2cc(Cl)c(F)c(C(=O)NNS(=O)(=O)c3cc(OCc4ccccc4)ccc3F)c2)c1 [Compound I-450]
6,< 10 µM,Cn1cnc(-c2cc(Cl)c(F)c(C(=O)NNS(=O)(=O)c3cccc(OCc4ccccc4)c3F)c2)c1 [Compound I-442]
7,10 to 50 µM,COc1ccc(S(=O)(=O)NNC(=O)c2cc(-c3cn(C)cn3)cc(Cl)c2F)c(Cl)c1 [Compound I-426]
8,10 to 50 µM,Cn1cnc(-c2cc(Cl)c(F)c(C(=O)NNS(=O)(=O)C3CCCN(CC(F)(F)F)C3)c2)c1 (stereo not shown) [Compound I-456]
9,< 10 µM,CC([C@H]1CC[C@@H](NC(=O)OC(C)(C)C)CC1)S(=O)(=O)NNC(=O)c1cc(-c2cn(C)cn2)cc(Cl)c1F (stereo partly shown) [Compound I-446]
10,> 100 µM,CC([C@H]1CC[C@H](N)CC1)S(=O)(=O)NNC(=O)c1cc(-c2cn(C)cn2)cc(Cl)c1F (stereo partly shown) [Compound I-449]
11,< 10 µM,COc1cc(F)c(S(=O)(=O)NNC(=O)c2cc(-c3cn(C)cn3)cc(Cl)c2F)cc1O [Compound I-458]
12,10 to 50 µM,Cn1cnc(-c2cc(Cl)c(F)c(C(=O)NNS(=O)(=O)C3CCN(CC(F)(F)F)CC3)c2)c1 [Compound I-445]
13,< 10 µM,COc1ccc(S(=O)(=O)NNC(=O)c2cc(-c3cn(C)cn3)cc(Cl)c2F)cc1O [Compound I-459]
14,> 100 µM,CNCCOc1ccc(S(=O)(=O)NNC(=O)c2cc(-c3cn(C)cn3)cc(Cl)c2F)cc1 [Compound I-422]
15,< 10 µM,Cn1cnc(-c2cc(Cl)c(F)c(C(=O)NNS(=O)(=O)c3ccc(F)cc3F)c2)c1 [Compound I-423]

# Same assay, conditions: Table 5
row,IC50,SMILES
1,> 100 µM,Cc1cccc(-c2cc(Cl)c(F)c(C(=O)NNS(=O)(=O)CC3CCCN(C)C3)c2)c1 (stereo not shown) [Compound A-8]
2,≤ 10 µM,Cc1cccc(-c2cc(Cl)c(F)c(C(=O)NNS(=O)(=O)CC3CN(C(=O)OC(C)(C)C)CCO3)c2)c1 (stereo not shown) [Compound A-4]
3,> 100 µM,Cc1cccc(-c2cc(Cl)c(F)c(C(=O)NNS(=O)(=O)C[C@@H]3CCCNC3)c2)c1 [Compound A-10]
4,> 100 µM,CCN1CCCC(CS(=O)(=O)NNC(=O)c2cc(-c3cccc(C)c3)cc(Cl)c2F)C1 (stereo not shown) [Compound A-9]
5,> 100 µM,Cc1cccc(-c2cc(Cl)c(F)c(C(=O)NNS(=O)(=O)C[C@H]3CCCNC3)c2)c1 [Compound A-7]
6,> 100 µM,Cc1cccc(-c2cc(C)c(F)c(C(=O)NNS(=O)(=O)CC3CCN(C(=O)OC(C)(C)C)C3)c2)c1 (stereo not shown) [Compound A-2]
7,> 100 µM,Cc1cccc(-c2cc(C)c(F)c(C(=O)NNS(=O)(=O)CC3CCCNC3)c2)c1 (stereo not shown) [Compound A-6]
8,> 100 µM,Cc1cccc(-c2cc(C)c(F)c(C(=O)NNS(=O)(=O)CC3CCNC3)c2)c1 (stereo not shown) [Compound A-3]
9,10 to 50 µM,Cc1cccc(-c2cc(Cl)c(F)c(C(=O)NNS(=O)(=O)CC3CNCCO3)c2)c1 (stereo not shown) [Compound A-5]
